Test results published in paper PMC8068361, “Design and Synthesis of a Novel PLK1 Inhibitor Scaffold Using a Hybridized 3D-QSAR Model” (International Journal of Molecular Sciences, 2021).
Read-outs that look alike come from different tables or passages of the source.

Assays:
[1] = molecular target: T1, PLK1(h) (Homo sapiens, UniProt P53350); experiment: PLK1 kinase IC50, Reaction Biology IC50 Profiler Express, 33P-ATP radiometric; format: biochemical; conditions: enzymatic; ATP 10 μM, casein substrate
T1 construct: purchased Reaction Biology Corp

[2] = molecular target: T2, PLK1 (Homo sapiens, UniProt P53350); experiment: Kinase panel screen (Kinase HotSpot), single dose 10 µM: PLK1; format: biochemical; conditions: duplicate, read-out: inhibitory activity against PLK1
T2 construct: purchased Reaction Biology Corp
Description: (§1) Assay protocol: In a final reaction volume of 25 μL, substrate[Casein], 1 μM, ATP 10 μM, PLK1(h) (5–10 mU) is incubated with 25 mM Tris pH 7.5, 0.02 mM EGTA, 0.66 mg/mL myelin basic protein, 10 mM Mg acetate, and [^33P-ATP] (specific activity approx. 500 cpm/pmol, concentration as required). The reaction is initiated by addition of the Mg-ATP mix. After incubation for 40 min at room temperature, the reaction is stopped by addition of 5 μL of a 3% phosphoric acid solution. […] The 30 selected protein kinases were ABL1, AKT1, ALK, Aurora A, AXL, AXL (R499C), BRAF (V599E), BTK, c-MER, c-MET, c-Src, CAMKK1, CDK1/cyclin A, EGFR, ERK1, FGFR3, FYN, IGF1R, JAK3, KDR/VEGFR2, LCK, LYN, MEK1, PKA, PLK1, PLK2, PLK3, PLK4/SAK, SYK, and TYRO3/SKY4.

[3] = molecular target: T3, PLK2 (Homo sapiens, UniProt Q9NYY3); experiment: Kinase panel screen (Kinase HotSpot), single dose 10 µM: PLK2; format: biochemical
T3 construct: purchased Reaction Biology Corp
Description: as §1

[4] = molecular target: T4, PLK3 (Homo sapiens, UniProt Q9H4B4); experiment: Kinase panel screen (Kinase HotSpot), single dose 10 µM: PLK3; format: biochemical
T4 construct: purchased Reaction Biology Corp
Description: as §1

[5] = tested on: other protein kinases; experiment: Kinase panel screen (Kinase HotSpot), single dose 10 µM: other kinases of the 30-kinase panel; format: biochemical
Description: as §1

[6] = molecular target: T2, PLK1; set-up: method as in ref 18 (a number printed in a supplementary file, which may have a reference list of its own: not looked up in the article's list); conditions: Table S1, Plk1, cited from earlier work; for Activity pIC50: pIC50 = −log IC50
[7] = molecular target: T2, PLK1; conditions: in words; cited from earlier work
[8] = molecular target: T2, PLK1; set-up: method as in ref 17 (a number printed in a supplementary file, which may have a reference list of its own: not looked up in the article's list); conditions: Table S2, Plk1, cited from earlier work

T2 sequence (P53350 whole entry): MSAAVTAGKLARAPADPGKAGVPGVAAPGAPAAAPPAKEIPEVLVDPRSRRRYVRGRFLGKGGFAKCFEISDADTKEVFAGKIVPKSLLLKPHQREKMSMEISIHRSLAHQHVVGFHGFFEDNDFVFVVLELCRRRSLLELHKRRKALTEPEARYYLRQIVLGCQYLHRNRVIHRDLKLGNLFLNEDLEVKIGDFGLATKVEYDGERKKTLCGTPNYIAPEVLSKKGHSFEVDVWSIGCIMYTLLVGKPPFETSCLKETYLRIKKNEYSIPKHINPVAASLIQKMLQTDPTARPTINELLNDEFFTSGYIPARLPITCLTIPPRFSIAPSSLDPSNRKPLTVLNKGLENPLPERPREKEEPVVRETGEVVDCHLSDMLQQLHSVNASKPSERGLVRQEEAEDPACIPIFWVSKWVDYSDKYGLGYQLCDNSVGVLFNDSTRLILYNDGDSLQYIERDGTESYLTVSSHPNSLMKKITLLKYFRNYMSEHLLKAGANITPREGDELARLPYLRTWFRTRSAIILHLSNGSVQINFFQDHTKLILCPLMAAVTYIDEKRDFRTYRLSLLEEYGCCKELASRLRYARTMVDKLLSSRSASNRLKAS
T1 sequence (P53350 whole entry): as above
T3 sequence (Q9NYY3 whole entry): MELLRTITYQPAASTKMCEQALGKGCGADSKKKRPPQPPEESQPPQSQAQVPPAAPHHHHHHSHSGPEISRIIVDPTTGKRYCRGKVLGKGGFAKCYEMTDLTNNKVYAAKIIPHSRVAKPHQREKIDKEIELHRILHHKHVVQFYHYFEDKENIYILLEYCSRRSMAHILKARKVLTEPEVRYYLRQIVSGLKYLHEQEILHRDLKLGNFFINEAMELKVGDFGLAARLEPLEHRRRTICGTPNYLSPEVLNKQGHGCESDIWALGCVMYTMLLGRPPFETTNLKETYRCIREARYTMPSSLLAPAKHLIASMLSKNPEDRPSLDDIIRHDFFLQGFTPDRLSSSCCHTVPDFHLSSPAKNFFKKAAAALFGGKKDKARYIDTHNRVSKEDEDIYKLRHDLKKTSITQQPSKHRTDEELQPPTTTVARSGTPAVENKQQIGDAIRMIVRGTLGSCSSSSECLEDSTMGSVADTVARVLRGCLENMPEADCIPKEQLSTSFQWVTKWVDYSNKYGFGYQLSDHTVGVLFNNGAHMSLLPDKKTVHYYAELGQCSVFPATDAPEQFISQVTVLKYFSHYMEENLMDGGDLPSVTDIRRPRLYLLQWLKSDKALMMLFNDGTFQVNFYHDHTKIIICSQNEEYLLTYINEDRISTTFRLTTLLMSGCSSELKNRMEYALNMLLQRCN
T4 sequence (Q9H4B4 whole entry): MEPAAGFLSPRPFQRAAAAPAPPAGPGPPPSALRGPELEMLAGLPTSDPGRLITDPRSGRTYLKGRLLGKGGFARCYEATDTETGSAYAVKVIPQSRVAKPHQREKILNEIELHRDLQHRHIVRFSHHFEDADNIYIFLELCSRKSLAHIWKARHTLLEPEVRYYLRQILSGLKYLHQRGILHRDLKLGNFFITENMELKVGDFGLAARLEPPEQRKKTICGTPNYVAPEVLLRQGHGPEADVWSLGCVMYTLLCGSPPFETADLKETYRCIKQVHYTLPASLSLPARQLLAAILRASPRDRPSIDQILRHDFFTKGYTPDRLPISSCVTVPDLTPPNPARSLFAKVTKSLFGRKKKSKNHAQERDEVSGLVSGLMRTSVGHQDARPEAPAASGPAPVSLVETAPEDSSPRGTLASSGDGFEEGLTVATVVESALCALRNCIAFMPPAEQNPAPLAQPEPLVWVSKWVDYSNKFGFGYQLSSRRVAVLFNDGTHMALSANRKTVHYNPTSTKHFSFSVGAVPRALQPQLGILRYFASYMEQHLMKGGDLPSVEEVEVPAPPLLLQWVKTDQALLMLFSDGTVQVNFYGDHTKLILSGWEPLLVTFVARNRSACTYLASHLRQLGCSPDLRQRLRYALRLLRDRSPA

For `NC(=O)c1nn(-c2ccnc(NC3CCOCC3)c2)cc1OCc1ccccc1` [Compound 8a], the IC50 [1] was > 10000 nM.
For `NC(=O)c1nn(-c2ccnc(NC3CCNCC3)c2)cc1OCc1ccccc1` [Compound 9a], the IC50 [1] was > 10000 nM.
In the case of `NC(=O)c1nn(-c2ccnc(N[C@H]3CCNC3)c2)cc1OCc1ccccc1` [Compound 10a], the IC50 [1] is reported as > 10000 nM.
`NC(=O)c1nn(-c2ccnc(Nc3ccccc3)c2)cc1OCc1ccccc1` [Compound 13a] gave an IC50 [1] of 9890 nM.
Work on `NC(=O)c1nn(-c2ccnc(Nc3ccccc3)c2)cc1OCc1ccccc1C(F)(F)F` [Compound 13b] yielded an IC50 [1] of 847 nM.
For `COc1ccccc1Nc1cc(-n2cc(OCc3ccccc3)c(C(N)=O)n2)ccn1` [Compound 14a], the IC50 [1] was 1020 nM.
Work on `COc1ccccc1Nc1cc(-n2cc(OCc3ccccc3C(F)(F)F)c(C(N)=O)n2)ccn1` [Compound 14b] yielded an IC50 [1] of 1310 nM.
For `NC(=O)c1nn(-c2ccnc(Nc3ccccc3)c2)cc1OCc1ccc(CO)cc1Cl` [Compound 15, 4-((2-chloro-4-(hydroxymethyl)benzyl)oxy)-1-(2-(phenylamino)pyridin-4-yl)-1H-pyrazole-3-carboxamide], the IC50 [1] was 219 nM, the inhibition at 10 µM [2] was 97% and the “activity against PLK2” value [3] was “no significant activity”. For the same compound, the “activity against PLK3” value [4] was “no significant activity”, the “activity against other protein kinases” value [5] was “no significant activity” and the IC50 [6] was 28 nM. For the same compound, the “Activity pIC50” value [6] was 7.5528.
In the case of `COc1ccccc1Nc1cc(-n2cc(OCc3ccc(CO)cc3Cl)c(C(N)=O)n2)ccn1` [Compound 17, 4-((2-chloro-4-(hydroxymethyl)benzyl)oxy)-1-(2-((2-methoxyphenyl)amino)pyridin-4-yl)-1H-pyrazole-3-carboxamide], the IC50 [1] is given as 312 nM, the IC50 [6] is given as 25 nM and the “Activity pIC50” value [6] is given as 7.6021.
In the case of `CN1CCN(c2ccc(C(=O)Nc3n[nH]c4c3CN(C(=O)Cc3cccs3)C4)cc2)CC1` [PHA-680626], the “PLK1 IC50s” value [7] is listed as “low nanomolar”.
In the case of `CCOC(=O)c1nn(-c2ccnc(F)c2)cc1O` [compound 3], the IC50 [6] is listed as 430 nM and the “Activity pIC50” value [6] is listed as 6.3665.
For `O=Cc1n[nH]c2c1CCc1cnc(Nc3ccccc3)nc1-2` [compound 34], the IC50 [8] is given as 248 nM and the “Activity pIC50” value ([8]; pIC50 = −log IC50) is given as 6.6055.
